Experimental data published in patent US10786580B2, “Cholecystokinin 2 receptor targeted NIR imaging and use thereof” (On Target Laboratories, LLC, priority 2016, dated 2020).
Read-outs that look alike come from different tables or passages of the source.

Columns and labels:
[1] = test system: HEK-CCK2R tumor xenograft; assay: Whole-body imaging and ex vivo tissue biodistribution in mice bearing HEK-CCK2R tumor xenografts
Experimental: (§1) FIG. 2A illustrates the overlay of whole body fluorescence image over white light images after adjusting the threshold for compound 40. HEK-CCK2R tumor xenograft bearing mice were injected with 10 nmol of compound 1 and imaged with IVIS imager (ex=745 nm, em=ICG, exposure time=1 s) at 2 h post-injection. After imaging, selected tissues were harvested, and tissues were imaged with IVIS imager (ex=745 nm, em=ICG, exposure time=1 s).
as §1, with “FIG. 2C depicts” for “FIG. 2A illustrates”, “compound 41.” for “compound 40.”, “[…]” for “compound 1”
as §1, with “FIG. 5A” for “FIG. 2A”, “the analysis of compound 21” for “the”, “the threshold.” for “the threshold for compound 40.”, “of 21” for “of compound 1”
FIG. 9 depicts a head-to-head comparison of fluorescence in the tumors from the mice injected with CCK2R-targeted-NIR dye compounds 21, 40-44. Overlay of tumor fluorescence image over white light images. HEK-CCK2R tumor xenograft bearing mice were injected with 10 nmol of requisite compound and imaged with IVIS imager at 2 h post-injection. After imaging, tumor tissues were harvested, and imaged with IVIS imager (ex=745 nm, em=ICG, exposure time=1 s).
FIG. 14E depicts the in vivo efficacy and specificity of 21 by whole-body imaging with nude mice bearing HEK-CCK2R tumors.
FIG. 14F depicts the ex vivo tissue biodistribution of mice of FIG. 14E dissecting after whole-body imaging.
Athymic female nude (nu/nu) mice (5 weeks old, 18-20 g) were purchased from Envigo (Indianapolis, Ind.) and maintained on normal rodent diet (Teklad, Wis.). Animals were housed 5/cage in a barrier, pathogen-free cloaked rack. Autoclaved tap water and food were given as needed. The animals were housed in a sterile environment on a standard 12 hour light-dark cycle for the duration of the study. […]
six-weeks-old female nu/nu mice were inoculated subcutaneously with HEK-CCK2 cells (5.0×10^6/mouse in 50% high concentrated matrigel in GIBCO medium) on the shoulder. Growth of the tumors was measured in perpendicular directions every 2 days using a caliper (body weights were monitored on the same schedule), and the volumes of the tumors were calculated as 0.5×L×W^2 (L=longest axis and W=axis perpendicular to L in millimeters). […]

CCK2R = biological target: T1, CCK2R (Homo sapiens, UniProt P32239); assay: In vitro binding of CCK2R-NIR compounds to HEK-CCK2R cells (cell bound fluorescence); parameters: expressed in transfected cells; host or cells: HEK (human embryonic kidney) cells, HEK-CCK2R, gift from Dr. Mark Hellmich (UTMB); details: for Kd: 1 h at 37° C.
T1 sequence (P32239 1-447): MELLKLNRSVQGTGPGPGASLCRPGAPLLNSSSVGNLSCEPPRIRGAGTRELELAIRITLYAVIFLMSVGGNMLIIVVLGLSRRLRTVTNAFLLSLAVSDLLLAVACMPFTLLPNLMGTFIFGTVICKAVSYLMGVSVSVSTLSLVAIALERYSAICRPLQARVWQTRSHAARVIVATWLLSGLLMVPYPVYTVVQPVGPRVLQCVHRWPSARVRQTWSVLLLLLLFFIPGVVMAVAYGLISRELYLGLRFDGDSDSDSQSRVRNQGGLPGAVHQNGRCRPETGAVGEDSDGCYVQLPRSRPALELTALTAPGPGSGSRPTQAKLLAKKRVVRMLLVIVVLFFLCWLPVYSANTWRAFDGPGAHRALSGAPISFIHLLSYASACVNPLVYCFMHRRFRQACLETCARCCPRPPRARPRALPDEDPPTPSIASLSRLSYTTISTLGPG
Experimental: (§2) FIG. 4 depicts the binding affinities of CCK2R-NIR compounds 21, 42-44 to CCK2R. CCK2R-positive HEK-CCK2R cancer cells were incubated for 1 h at 37° C. with increasing concentrations of compounds. Media was then removed, washed with fresh media three times, and replaced with PBS. Cell bound fluorescence was assayed as using fluorometer.
CCK2R-positive HEK-CCK2R cancer cells were incubated for 1 h at 37° C. with increasing concentrations of compounds. Media was then removed, washed with fresh media three times, and replaced with PBS. Cell bound fluorescence was assayed as using fluorometer.
as §2, with “13 illustrates” for “4 depicts”, “affinity” for “affinities”, “of” for “of CCK2R-NIR”, “[…]” for “21, 42-44”, “compound 21.” for “compounds.”
(§3) HEK-CCK2 cells (a human embryonic kidney cells transfected with CCK2 receptor) were a kind gift from Dr. Mark Hellmich (University of Texas Medical Branch, Galveston, Tex.) and grown as a monolayer using Dulbecco's Modified Eagles Medium (GIBCO) (Gibco, NY) 10% heat-inactivated fetal bovine serum (Atlanta Biological, GA) and 1% penicillin streptomycin (Gibco, NY) in a 5% carbon dioxide: 95% air-humidified atmosphere at 37° C. for at least six passages before they were used for the assays.
HEK cells that overexpress CCK2 were seeded into a T75 flask and allowed to form a monolayer over 48 h. After trypsin digestion, release cells were transferred into centrifuge tubes (1×10^6 cells/tube) and centrifuged. The medium was replaced with fresh medium containing increasing concentration of requisite CCK2R-Ligand-NIR dye compound in the presence or absence of 100-fold excess the ligand, a high affinity CCK2 receptor antagonist, and incubated for 1 h at 37° C. After rinsing with fresh medium (2×1.0 mL) and PBS (1×1.0 mL), cells were resuspended in PBS (1.0 mL) and cell bound fluorescence was analyzed (100,000 cells/sample) using a fluorometer (Cary, Agilent). The relative binding affinities were calculated using a plot of % cell bound fluorescence versus the log concentration of the test article using GraphPad Prism 4.

[2] = Excitation and emission spectra; format: physicochemical; details: FIG. 12
From the text: FIG. 12 depicts the chemical structure, excitation and emission spectra of compound 21 (OTL81).

HEK-CCK2 cells = assay: Epi-fluorescence microscopy of binding to CCK2R expressing HEK cells; format: cell-based, human; details: FIGS. 14c & d
Experimental: as §3

[3] = FIG. 14, mice bearing HEK-CCK2R tumor xenografts

Kd (CCK2R; FIG. 13, HEK-CCK2R cells, read-out: dissociation constant (KD)): 1 nM | Kd (CCK2R; Table 1, CCK2R-positive HEK-CCK2R cancer cells, read-out: KD): 0.67 nM | affinity for CCK2R (in words) (CCK2R; in vitro binding affinity data, HEK-CCK2R cells): very high affinity
SMILES: CC(C)(C)C(=O)CN1C(=O)[C@H](NC(=O)Nc2cccc(C(=O)N[C@H](CCC(=O)N[C@@H](Cc3ccc(OC4=C(/C=C/C5=[N+](CCCCS(=O)(=O)[O-])c6ccc(S(=O)(=O)O)cc6C5(C)C)CCC/C4=C\C=C4\N(CCCCS(=O)(=O)O)c5ccc(S(=O)(=O)O)cc5C4(C)C)cc3)C(=O)O)C(=O)O)c2)CN(C2CCCCC2)c2ccccc21 [Compound 21, 4-(2-((E)-2-((E)-2-(4-((S)-2-carboxy-2-((R)-4-carboxy-4-(3-(3-((R)-5-cyclohexyl-1-(3,3-dimethyl-2-oxobutyl)-2-oxo-2,3,4,5-tetrahydro-1H-benzo[b][1,4]diazepin-3-yl)ureido)benzamido)butanamido)ethyl)phenoxy)-3-(2-((E)-3,3-dimethyl-5-sulfo-1-(4-sulfobutyl)indolin-2-ylidene)ethylidene)cyclohex-1-en-1-yl)vinyl)-3,3-dimethyl-5-sulfo-3H-indol-1-ium-1-yl)butane-1-sulfonate]
fluorescence intensity in the tumors ([1]; 10 nmol, 2 h post-injection): very high fluorescence intensity | tumor uptake, head-to-head comparison ([1]; FIG. 9, 10 nmol, 2 h post-injection, compounds 21, 40-44): highest tumor uptake | tissue uptake (whole-body imaging and ex vivo biodistribution) [1, 3]: solely taken up in CCK2R positive tumors with no accumulation in other tissues | tumor-to-background ratio [1, 3]: very high | Stokes shift [2]: 20 nm | emission wavelength [2]: 796 nm | excitation wavelength [2]: 776 nm | labelling of HEK-CCK2 cells (HEK-CCK2 cells): efficiently label
